Test results published in the NIST ThermoML archive (doi:10.1021/acs.jced.5b01003).
Where “and” joins values, the source holds several entries; their conditions need not be identical. Equal values may be shown once.

Details: Liquid, Transpiration method

CN(C)CCN [2-dimethylamino-1-ethylamine]
Details	vapor or sublimation pressure
273.8 K	0.7397 kPa
274.2 K	0.7526 kPa
275.2 K	0.808 kPa
276.7 K	0.8869 kPa
278.2 K	0.9687 kPa
280.7 K	1.114 kPa
283.2 K	1.309 kPa
285.6 K	1.561 kPa
288.2 K	1.821 kPa
290.7 K	2.088 kPa
293.2 K	2.392 kPa
295.6 K	2.763 kPa
298.2 K	3.186 kPa and 3.282 kPa
300.7 K	3.755 kPa and 3.727 kPa
303.2 K	4.331 kPa and 4.291 kPa

CNCCNC [N1,N2-dimethylethane-1,2-diamine]
Details	vapor or sublimation pressure [kPa]
279.2 K	0.4258
281.4 K	0.5045
283.3 K	0.5851
285.6 K	0.6936
288.2 K	0.8579
290.6 K	1.023
293.2 K	1.228
295.8 K	1.498
298.2 K	1.781
300.7 K	2.106
303.4 K	2.477
305.6 K	2.892
308.2 K	3.408
310.7 K	3.974

CNCCN(C)C [N,N,N'-trimethylethylenediamine]
Details	vapor or sublimation pressure [kPa]
274.2 K	0.5021
276.7 K	0.605
281.8 K	0.8858
286.8 K	1.271
291 K	1.686
296.3 K	2.403
298.2 K	2.733
301 K	3.259
303.2 K	3.811
304.1 K	4.074
305.4 K	4.402

CNCCN [N-methylethylenediamine]
Details	vapor or sublimation pressure [kPa]
272.2 K	0.2731
274.3 K	0.3181
275.4 K	0.3449
278 K	0.4148
278.6 K	0.4455
279.4 K	0.4695
280.2 K	0.4943
281.3 K	0.5355
282.3 K	0.5867
283.1 K	0.6075
284.1 K	0.6579
284.9 K	0.6972
286.3 K	0.7738
287.8 K	0.8601
289.3 K	0.9404
290.6 K	1.034
292.2 K	1.176
294.6 K	1.394
296.2 K	1.541
298.1 K	1.762
300.2 K	2.017
302.2 K	2.275
